In brackets after ≈: the same amount, converted by molar mass.
Tests used:
[1] = test system: Methicillin-Resistant Staphylococcus aureus (MRSA), Stenotrophomonas maltophilia, Haemophilus influenzae, and Neisseria gonorrhoeae; details: reported values; cited from earlier work
[2] = Tigecycline plasma PK after IV bolus in anesthetized rats; assay type: in vivo; details: female, Sprague-Dawley, rat
Experimental: Naïve, female Sprague-Dawley Rats (Taconic Farms, Germantown, N.Y.) housed in groups of three were maintained in a climate-controlled room on a 12:12 h light-dark cycle with food and water available ad libitum. Animals weighed approximately 250 g at the time of testing. Rats were fasted overnight (with water available), prior to dosing. Tigecycline stock was prepared fresh on the day of each study in water and diluted in the indicated formulations.
Intravenous (IV) doses were administered as a bolus injection into the left carotid […] at a dose volume of 1.6 mL/kg. Intraduodenal doses were administered as bolus injections into the duodenum at a dose volume of 1.2 mL/kg.
Female rats were maintained in groups of 3 per polycarbonate (or equivalent) shoebox cage with fresh wood chip bedding at 20-22° C. under a 12 hour on/off light:dark cycle. The rats were fasted overnight prior to surgery and anesthetized by intramuscular injection of 0.3 mL fresh ketamine (67 mg/mL)/xylazine (42 mg/mL) in 0.9% saline into the hind flank. After the rats went limp they were injected intraperitoneally (IP) with 0.1 mL ketamine/xylazine. The anesthetic state was maintained by IP injection of ketamine/xylazine on an as needed basis. Animal weights were determined post-anesthesia induction.
An indwelling catheter for blood sampling was inserted into the right carotid artery by exposing the trachea with Mayo scissors, clamping the bottom of the […] and tying off the top with surgical suture. The area between was nicked with small sharp scissors and Intramedic polyethylene tubing was inserted into the nicked area. The artery with the tubing was sealed with suture to prevent leakage. A 23-gauge Intramedic Luer Stub Adapter was inserted into the cannula and attached to a 3 way valve which was connected to a 3 cc syringe filled with 0.9% normal saline and a 1 cc syringe filled with 5 U/mL sodium heparin for blood sampling.
Blood samples were collected in tubes containing 20 μL 180 mM EDTA. The tubes were maintained on ice and then centrifuged at approximately 3000 rpm at 4° C. for 5 minutes. Plasma was harvested immediately after centrifugation of the samples and stored at −20° C. pending analysis.
Minocycline (VWR international) was used as an internal standard. Sample processing/clean-up of plasma samples was carried out offline by protein precipitation with acidified acetonitrile.
The HPLC system consisted of Shimadzu SIL-HTc HPLC system equipped with dual Shimadzu LC-10ADvp isopumps, a Shimadzu CTO-10ASvp column temperature controller and a Shimadzu SPD-10Avp variable wavelength detector. […] Mobile phase A consisted of 23 mM phosphate buffer pH 2.5 with 6 mM 1-octanesulfonic acid, while mobile phase B consisting of pure acetonitrile. […] The mobile phase flow rate was 1.2 mL/min. Detection was performed using the SPD-10Avp variable wavelength detector set at 350 nm, with a sensitivity of 0.001 aufs.
The samples were then centrifuged under refrigeration at 13 k rpm for 30 minutes. The supernatant was taken and the liquid was removed to dryness in a turbovap. The samples were then reconstituted in 55 μL 0.1M phosphate buffer, pH 3.8. Samples were maintained at 10° C. while on the autoinjector during sequence. The injection volume was 50 μL. The unknown concentration in rat plasma samples was determined by interpolation of the peak area ratios of analyte:internal standard versus the ratio of their nominal concentrations into the regression line obtained from calibration standards spiked in pooled rat plasma. No regression weighting was used for the calculations. […] The calibration curve covered the range of 0.05 μg/mL to 5.0 μg/mL.
Due to analytical issues observed in the analyses of earlier study samples, the analytical method was changed slightly for later samples. Mobile phase A was changed to 23 mM phosphate buffer pH 2.5 with 4 mM 1-octanesulfonic acid, while mobile phase B was changed to 90% acetonitrile, 10% water, with 2 mM 1-octanesulfonic acid. […]

[3] = IV bolus 0.64 mg/kg, PBS (RA851)

In the case of CN(C)c1cc(NC(=O)CNC(C)(C)C)c(O)c2c1C[C@H]1C[C@H]3[C@H](N(C)C)C(O)=C(C(N)=O)C(=O)[C@@]3(O)C(O)=C1C2=O [Tigecycline], the MIC [1] is listed as 2 µg/mL (≈ 3.41 µM), the AUC(0-t) [2, 3] is listed as 970 ng·h/mL and the Cmax [2, 3] is listed as 1790 ng/mL. It also gave a Tmax [2, 3] of 5 min, a concentration at 0 min [2, 3] of 0 ng/mL and a concentration at 5 min [2, 3] of 1790 ng/mL. The concentration at 10 min [2, 3] was 888 ng/mL, the concentration at 20 min [2, 3] was 447 ng/mL and the concentration at 30 min [2, 3] was 376 ng/mL. It also gave a concentration at 60 min [2, 3] of 290 ng/mL, a concentration at 120 min [2, 3] of 216 ng/mL and a concentration at 240 min ([2]; IV bolus 0.64 mg/kg, PBS (RA851), 240 min) of 116 ng/mL. For the same compound, the AUC(0-t) ([2]; IV bolus 12 mg/kg, PBS (RA853)) was 13200 ng·h/mL, the Cmax ([2]; IV bolus 12 mg/kg, PBS (RA853)) was 50700 ng/mL and the Tmax ([2]; IV bolus 12 mg/kg, PBS (RA853)) was 5 min. The concentration at 0 min ([2]; IV bolus 12 mg/kg, PBS (RA853)) was 0 ng/mL, the concentration at 5 min ([2]; IV bolus 12 mg/kg, PBS (RA853)) was 50700 ng/mL and the concentration at 10 min ([2]; IV bolus 12 mg/kg, PBS (RA853)) was 26200 ng/mL. The concentration at 20 min ([2]; IV bolus 12 mg/kg, PBS (RA853)) was 9310 ng/mL, the concentration at 30 min ([2]; IV bolus 12 mg/kg, PBS (RA853)) was 5760 ng/mL and the concentration at 60 min ([2]; IV bolus 12 mg/kg, PBS (RA853)) was 2610 ng/mL. It also gave a concentration at 120 min ([2]; IV bolus 12 mg/kg, PBS (RA853)) of 1870 ng/mL, an AUC(0-t) ([2]; RA869, IV, 0.6 mg/kg) of 132 ng·h/mL and a Cmax ([2]; RA869, IV, 0.6 mg/kg) of 369 ng/mL. It also gave a Tmax ([2]; RA869, IV, 0.6 mg/kg) of 7.5 min.

From patent publication US9526785B2, “Pharmaceuticals for oral delivery” (Enteris BioPharma, Inc., priority 2013, dated 2016)
